Test results published in BindingDB's records for doi:10.1016/S0045-2068(03)00026-9 (Keio University, 2003).

What follows are molecules tested against T1, Polyphenol oxidase 2 (Agaricus bisporus, UniProt O42713) (assay: Spectrophotometic Assay). Details: pH 6.8; 30 °C.
T1 sequence (O42713 whole entry): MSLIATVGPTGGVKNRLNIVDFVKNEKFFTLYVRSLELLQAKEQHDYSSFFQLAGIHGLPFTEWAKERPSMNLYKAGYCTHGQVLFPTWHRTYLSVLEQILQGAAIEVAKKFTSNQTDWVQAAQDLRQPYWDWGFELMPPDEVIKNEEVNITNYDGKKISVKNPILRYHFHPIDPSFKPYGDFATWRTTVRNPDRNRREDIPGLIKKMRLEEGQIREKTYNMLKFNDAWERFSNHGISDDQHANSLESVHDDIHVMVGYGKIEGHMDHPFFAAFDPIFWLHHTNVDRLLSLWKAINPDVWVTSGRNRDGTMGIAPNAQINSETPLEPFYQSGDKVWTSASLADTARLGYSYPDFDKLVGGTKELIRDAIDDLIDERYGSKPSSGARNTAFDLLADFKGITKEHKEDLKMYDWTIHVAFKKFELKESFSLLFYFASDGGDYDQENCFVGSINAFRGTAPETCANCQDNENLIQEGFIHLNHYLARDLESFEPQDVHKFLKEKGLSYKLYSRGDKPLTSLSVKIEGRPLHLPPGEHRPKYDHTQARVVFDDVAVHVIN
Text: The IC50 values were obtained from a spectrophotometric assay.
O=NN(O)Cc1ccccc1O [N-nitrosohydroxylamine N-substituted, 4] gave an IC50 of 19.2 µM.
In the case of O=NN(O)Cc1ccc(Cl)cc1 [N-nitrosohydroxylamine N-substituted, 9], the IC50 is reported as 13.1 µM.
Molecule CC(C)(C)c1ccc(CN(O)N=O)cc1 [N-nitrosohydroxylamine N-substituted, 11] has an IC50 of 15.8 µM.
In the case of O=NN(O)Cc1ccc(O)cc1O [N-nitrosohydroxylamine N-substituted, 7], the IC50 is reported as 11.6 µM.
O=NN(O)Cc1cccc(O)c1 [N-nitrosohydroxylamine N-substituted, 5] was tested, and the IC50 was 20.3 µM.
Molecule COc1ccc(CN(O)N=O)cc1 [N-nitrosohydroxylamine N-substituted, 10] has an IC50 of 9.7 µM.
O=NN(O)Cc1ccc(O)cc1 [N-nitrosohydroxylamine N-substituted, 6] showed an IC50 of 13.7 µM.
Work on O=NN(O)Cc1cc(O)ccc1O [N-nitrosohydroxylamine N-substituted, 8] yielded an IC50 of 23.8 µM.
